Measured values from US9018256B2, “Feed additive for animals of P-thymol, salt derivative or ester derivative thereof” (priority 2011, dated 2015).
Where two headings read alike, the source gives them in different places.

What was measured:
Wistar rats = assay: Rat oral LD50 measurement (improved Karber's method); type: in vivo
staphylococcus aureus = assay: In-vitro antibacterial activity, tube double dilution method; type: cell-based
clostridium perfringens = type: cell-based
escherichia coli = assay: In-vitro antibacterial activity, tube double dilution method; type: cell-based
salmonella gallinarum = type: cell-based
salmonella bacillus = type: cell-based
salmonella choleraesuis = assay: In-vitro antibacterial activity, tube double dilution method; type: cell-based
[1] = test system: Lingnan yellow big chicken; assay: Comparison of chicken growth promoting effects of p-thymol, thymol and carvacrol; type: in vivo; details: 100 ppm in feed, 1 to 21-day-old chickens; for Total Feed Consumption / Total Weight Gain: 50 per group
[2] = test system: three-way cross weaned pigs; assay: Growth promoting effect test on weaned pigs; type: in vivo, pig; details: 100 ppm in feed, 30 days; for Total Feed Consumption / Total Weight Gain: 30 per group
Chemy Valley ducks = assay: Growth promoting effect test on ducks; type: in vivo, duck; details: 100 ppm in feed, 1 to 46-day-old ducks; for Total Feed Consumption / Total Weight Gain: 100 per group
black carps = assay: Application in aquatic feed (black carp growth test); type: in vivo; details: for average weight gain improved compared with the control group / feed conversion rate (FCR) / feed conversion rate reduced compared with the control group / final weight / weight gain: 100 ppm in feed, black carps, 8 weeks
rats = details: rat, in vivo; cited from earlier work
[3] = Volatility comparison under reduced-pressure drying; details: for weight remained after reduced-pressure drying: initial weight 10.0 g
[4] = Changes in chicken complete formula feed during preservation (gas chromatography); details: 25-30° C., initial 100 ppm
[5] = rat, oral, preliminary experiment
[6] = clostridium perfringens CAU0591
[7] = clostridium perfringens CAU0795
[8] = clostridium perfringens CAU0855
[9] = clostridium perfringens CAU0859
[10] = clostridium perfringens HNAU160
[11] = clostridium perfringens HNAU166
[12] = salmonella choleraesuis CEC19940141
[13] = salmonella choleraesuis CEC19940146

Cc1ccc(C(C)C)cc1O [carvacrol, 2-methyl-5-isopropyl-phenol]
Toxicity Judgment (Wistar rats; rat oral LD50 grading): relative
LD50 (Wistar rats; rat, oral, observed 7 days): 6400 mg/kg weight
Dm (dose causing 100% death) (Wistar rats; [5]): 1800 mg/kg weight
Dn (dose causing 0% death) (Wistar rats; [5]): 400 mg/kg weight
Inhibiting Activity (minimum bacteria inhibiting concentration) (staphylococcus aureus; s. aureus CAU0804): 500 µg/mL
Inhibiting Activity (minimum bacteria inhibiting concentration) (staphylococcus aureus; s. aureus CAU0810): 250 µg/mL
Inhibiting Activity (minimum bacteria inhibiting concentration) (staphylococcus aureus; s. aureus CAU0837): 250 µg/mL
Inhibiting Activity (minimum bacteria inhibiting concentration) (staphylococcus aureus; s. aureus CAU0866): 250 µg/mL
Inhibiting Activity (minimum bacteria inhibiting concentration) (staphylococcus aureus; s. aureus CAU0868): 250 µg/mL
Inhibiting Activity (minimum bacteria inhibiting concentration) (staphylococcus aureus; s. aureus CAU0869): 250 µg/mL
Inhibiting Activity (minimum bacteria inhibiting concentration) (staphylococcus aureus; s. aureus CAU0871): 250 µg/mL
Inhibiting Activity (minimum bacteria inhibiting concentration) (clostridium perfringens; [6]): 500 µg/mL
Inhibiting Activity (minimum bacteria inhibiting concentration) (clostridium perfringens; [7]): 250 µg/mL
Inhibiting Activity (minimum bacteria inhibiting concentration) (clostridium perfringens; [8]): 500 µg/mL
Inhibiting Activity (minimum bacteria inhibiting concentration) (clostridium perfringens; [9]): 500 µg/mL
Inhibiting Activity (minimum bacteria inhibiting concentration) (clostridium perfringens; [10]): 500 µg/mL
Inhibiting Activity (minimum bacteria inhibiting concentration) (clostridium perfringens; [11]): 250 µg/mL
Inhibiting Activity (minimum bacteria inhibiting concentration) (escherichia coli; escherichia coli CAU0020): 250 µg/mL
Inhibiting Activity (minimum bacteria inhibiting concentration) (escherichia coli; escherichia coli CAU0053): 500 µg/mL
Inhibiting Activity (minimum bacteria inhibiting concentration) (escherichia coli; escherichia coli CAU0147): 250 µg/mL
Inhibiting Activity (minimum bacteria inhibiting concentration) (escherichia coli; escherichia coli CAU0159): 250 µg/mL
Inhibiting Activity (minimum bacteria inhibiting concentration) (escherichia coli; escherichia coli CAU0195): 500 µg/mL
Inhibiting Activity (minimum bacteria inhibiting concentration) (salmonella gallinarum; salmonella gallinarum CAU0205): 250 µg/mL
Inhibiting Activity (minimum bacteria inhibiting concentration) (salmonella gallinarum; salmonella gallinarum CAU0206): 500 µg/mL
Inhibiting Activity (minimum bacteria inhibiting concentration) (salmonella gallinarum; salmonella gallinarum QAU0399): 500 µg/mL
Inhibiting Activity (minimum bacteria inhibiting concentration) (salmonella bacillus): 250 µg/mL
Inhibiting Activity (minimum bacteria inhibiting concentration) (salmonella choleraesuis; [12]): 500 µg/mL
Inhibiting Activity (minimum bacteria inhibiting concentration) (salmonella choleraesuis; [13]): 250 µg/mL
Average Weight Gain [1]: 332.9 g
Feed Conversion Rate [1]: 1.761
Survival Rate [1]: 100%
feed conversion rate reduced compared with the control group [1]: 0.021
relative weight gain rate improved compared with the control group [1]: 3.19%
Total Feed Consumption [1]: 29.32 kg
Total Weight Gain [1]: 16.65 kg
Relative Weight Gain Rate ([1]; control = 100): 103.19%
Feed Conversion Rate [2]: 2.336
Survival Rate [2]: 100%
feed conversion rate reduced compared with the control group [2]: 0.085
relative weight gain rate improved compared with the control group [2]: 4.69%
Total Feed Consumption [2]: 798.1 kg
Total Weight Gain [2]: 341.7 kg
Relative Weight Gain Rate ([2]; control = 100): 104.69%
Feed Conversion Rate (Chemy Valley ducks): 2.739
Survival Rate (Chemy Valley ducks): 100%
feed conversion rate reduced compared with the control group (Chemy Valley ducks): 0.049
relative weight gain rate improved compared with the control group (Chemy Valley ducks): 2.51%
Total Feed Consumption (Chemy Valley ducks): 928.3 kg
Total Weight Gain (Chemy Valley ducks): 338.9 kg
Relative Weight Gain Rate (Chemy Valley ducks; control = 100): 102.51%
average weight gain improved compared with the control group (black carps): 3.52%
feed conversion rate (FCR) (black carps): 1.45 ± 0.06
feed conversion rate reduced compared with the control group (black carps): 2.68%
final weight (black carps): 598.08 ± 27.11 g
weight gain (black carps): 138.0 ± 7.78%
survival rate (SR) (black carps; in vivo): 100%
oral median lethal dose (LD50) of rats (rats): 810 mg/kg weight
weight remained after reduced-pressure drying ([3]; 50° C., 1 hour): 4.84 g
weight remained after reduced-pressure drying ([3]; 70° C., 1 hour): 0 g
weight remained after reduced-pressure drying ([3]; 90° C., 1 hour): 0 g
volatilization (in words) ([3]; reduced-pressure drying within 1 hour at 70° C. and over): completely volatilized
concentration measured after extraction from the complete formula feed ([4]; 1 day): 99.6 ppm
concentration measured after extraction from the complete formula feed ([4]; 15 days): 87.7 ppm
concentration measured after extraction from the complete formula feed ([4]; 30 days): 73.1 ppm
concentration measured after extraction from the complete formula feed ([4]; 45 days): 58.5 ppm
concentration measured after extraction from the complete formula feed ([4]; 60 days): 42.6 ppm

Cc1ccc(C(C)C)c(O)c1 [thymol, 5-methyl-2-isopropyl-phenol]
Inhibiting Activity (minimum bacteria inhibiting concentration) (staphylococcus aureus; s. aureus CAU0804): 500 µg/mL
Inhibiting Activity (minimum bacteria inhibiting concentration) (staphylococcus aureus; s. aureus CAU0810): 125 µg/mL
Inhibiting Activity (minimum bacteria inhibiting concentration) (staphylococcus aureus; s. aureus CAU0837): 250 µg/mL
Inhibiting Activity (minimum bacteria inhibiting concentration) (staphylococcus aureus; s. aureus CAU0866): 250 µg/mL
Inhibiting Activity (minimum bacteria inhibiting concentration) (staphylococcus aureus; s. aureus CAU0868): 250 µg/mL
Inhibiting Activity (minimum bacteria inhibiting concentration) (staphylococcus aureus; s. aureus CAU0869): 125 µg/mL
Inhibiting Activity (minimum bacteria inhibiting concentration) (staphylococcus aureus; s. aureus CAU0871): 250 µg/mL
Inhibiting Activity (minimum bacteria inhibiting concentration) (clostridium perfringens; [6]): 250 µg/mL
Inhibiting Activity (minimum bacteria inhibiting concentration) (clostridium perfringens; [7]): 250 µg/mL
Inhibiting Activity (minimum bacteria inhibiting concentration) (clostridium perfringens; [8]): 250 µg/mL
Inhibiting Activity (minimum bacteria inhibiting concentration) (clostridium perfringens; [9]): 250 µg/mL
Inhibiting Activity (minimum bacteria inhibiting concentration) (clostridium perfringens; [10]): 500 µg/mL
Inhibiting Activity (minimum bacteria inhibiting concentration) (clostridium perfringens; [11]): 250 µg/mL
Inhibiting Activity (minimum bacteria inhibiting concentration) (escherichia coli; escherichia coli CAU0020): 250 µg/mL
Inhibiting Activity (minimum bacteria inhibiting concentration) (escherichia coli; escherichia coli CAU0053): 250 µg/mL
Inhibiting Activity (minimum bacteria inhibiting concentration) (escherichia coli; escherichia coli CAU0147): 250 µg/mL
Inhibiting Activity (minimum bacteria inhibiting concentration) (escherichia coli; escherichia coli CAU0159): 250 µg/mL
Inhibiting Activity (minimum bacteria inhibiting concentration) (escherichia coli; escherichia coli CAU0195): 250 µg/mL
Inhibiting Activity (minimum bacteria inhibiting concentration) (salmonella gallinarum; salmonella gallinarum CAU0205): 500 µg/mL
Inhibiting Activity (minimum bacteria inhibiting concentration) (salmonella gallinarum; salmonella gallinarum CAU0206): 250 µg/mL
Inhibiting Activity (minimum bacteria inhibiting concentration) (salmonella gallinarum; salmonella gallinarum QAU0399): 500 µg/mL
Inhibiting Activity (minimum bacteria inhibiting concentration) (salmonella bacillus): 250 µg/mL
Inhibiting Activity (minimum bacteria inhibiting concentration) (salmonella choleraesuis; [12]): 250 µg/mL
Inhibiting Activity (minimum bacteria inhibiting concentration) (salmonella choleraesuis; [13]): 250 µg/mL
Average Weight Gain [1]: 334.8 g
Feed Conversion Rate [1]: 1.756
Survival Rate [1]: 100%
feed conversion rate reduced compared with the control group [1]: 0.026
Total Feed Consumption [1]: 29.40 kg
Total Weight Gain [1]: 16.74 kg
Feed Conversion Rate [2]: 2.324
Survival Rate [2]: 100%
feed conversion rate reduced compared with the control group [2]: 0.097
Total Feed Consumption [2]: 796.3 kg
Total Weight Gain [2]: 342.6 kg
Feed Conversion Rate (Chemy Valley ducks): 2.726
Survival Rate (Chemy Valley ducks): 100%
feed conversion rate reduced compared with the control group (Chemy Valley ducks): 0.062
Total Feed Consumption (Chemy Valley ducks): 940.7 kg
Total Weight Gain (Chemy Valley ducks): 345.1 kg
average weight gain improved compared with the control group (black carps): 4.53%
feed conversion rate (FCR) (black carps): 1.44 ± 0.08
feed conversion rate reduced compared with the control group (black carps): 3.36%
final weight (black carps): 601.58 ± 28.02 g
weight gain (black carps): 139.29 ± 7.37%
weight remained after reduced-pressure drying ([3]; 50° C., 1 hour): 6.12 g
weight remained after reduced-pressure drying ([3]; 70° C., 1 hour): 1.02 g
weight remained after reduced-pressure drying ([3]; 90° C., 1 hour): 0 g
volatilized part ([3]; reduced-pressure drying 70° C., 1 hour): 89.8%
concentration measured after extraction from the complete formula feed ([4]; 1 day): 100.4 ppm
concentration measured after extraction from the complete formula feed ([4]; 15 days): 90.2 ppm
concentration measured after extraction from the complete formula feed ([4]; 30 days): 78.9 ppm
concentration measured after extraction from the complete formula feed ([4]; 45 days): 63.7 ppm
concentration measured after extraction from the complete formula feed ([4]; 60 days): 49.7 ppm
